Data taken from PMC3608532, “Characterization of a Single-Chain Variable Fragment Recognizing a Linear Epitope of Aβ: A Biotechnical Tool for Studies on Alzheimer’s Disease?” (PLoS ONE, 2013).

Legend:
[1] = tested on: Aβ naturally secreted by 7PA2 cells; assay: Immunoprecipitation of cell culture derived Aβ; format: binding; conditions: scFv-IC16-NHS-Sepharose, Western blot with 4G8
Protocol: Purified scFv-IC16 was dialyzed against PBS and coupled to NHS-Sepharose (GE, Buckinghamshire, UK) according to the manufacturers recommendations. Conditioned medium (CM) was prepared from confluent wild type CHO cells or 7PA2 cells cultured in DMEM (Life Technologies, UK) in presence or absence of FCS. Aβ was immune-precipitated from cleared CM with scFv-IC16-NHS-Sepharose overnight at 4°C. After washing with PBS, captured proteins were separated by 10–20% tricine peptide PAGE (Biorad, Hercules, CA) and transferred onto a 0.2 µm nitrocellulose membrane at 400 mA for 2 h. The filter was boiled for 5 min in PBS [42] and blocked overnight at 4°C with 5% fat-free milk in PBS containing 0.05% Tween 20 (PBS-T). After washing in PBS-T, the membrane was probed with 1∶200 diluted monoclonal 4G8 (Signet, Dedhem, MA). Bound antibody was detected with horseradish peroxidase conjugated goat anti-mouse Ig (at 1∶25000) (Thermo Scientific, Bonn, Germany). Subsequently, the Amersham ECL Western Blotting Detection Reagent (GE, Buckinghamshire, UK) was applied for visualization.

Aβ(1-42) monomers = assay: ELISA binding to Aβ(1-42) monomers; design: species or system human; conditions: 250 ng/well
Protocol: 1 mg of Aβ(1-42) or N-terminally/C-terminally biotinylated Aβ(1-42) was dissolved in 1 ml 1,1,1,3,3,3-hexafluorosiopropanol (HFIP) and incubated overnight at room temperature. Afterwards, Aβ(1-42) was mixed in the favored ratio with N-terminally/C-terminally biotinylated Aβ(1-42) and aliquoted. HFIP was evaporated using a SpeedVac (Concentrator 5301, Eppendorf, Germany) at room temperature for 30 min. To evaporate remaining HFIP, the sample was incubated overnight at room temperature with an open lid.
The preparation of Aβ(1-42) monomers and oligomers was carried out by size exclusion chromatography (SEC) as already described by Johansson et al with minor modifications. 250 µg of Aβ peptide was dissolved in 130 µl SEC buffer (50 mM NaPi, pH 7.4; 150 mM NaCl; 0.6% Tween-20) and briefly centrifuged (1 min, 16 100×g, room temperature) to remove insoluble fibrillar material. 100 µl of the supernatant was applied on a Superdex75 10/300 column (GE Healthcare, UK) connected to an Äkta purifier system (GE Healthcare, UK). The sample was eluted at a flow rate of 0.6 ml per min at room temperature and detected at wavelengths of 214, 250 and 278 nm. […] The concentration of the Aβ preparations was determined using the Micro BCA Protein Assay Kit (Thermo Scientific, Waltham, MA, USA). […] The samples were measured at a wavelength of 570 nm with a Polarstar Optima plate reader (BMG, Ortenberg, Germany). […]

Aβ(8-15) = assay: SPR binding kinetics to immobilized Aβ(8-15)
Protocol: Binding kinetics were determined by SPR using a Biacore™ X (GE Healthcare, UK). Synthetic Aβ peptides were dissolved in 10 mM NaAc, pH 4.0. The CM5 sensor chip surface (GE Healthcare, UK) was activated using N-ethyl-N′-3 […] carbodiimide (EDC) and N-hydroxysuccinimide (NHS) chemistry followed by 2-(2-pyridinyldithio)ethaneamine hydrochloride (PDEA), in order to introduce a reactive thiol group. Aβ was coupled via the C-terminal cysteine to the chip at a flow rate of 5 µl/min, and the remaining active groups were blocked by injecting cysteine. The immobilization procedure was performed according to manufacturer’s recommendation. All kinetic analyses were performed at a flow rate of 20 µl/min in PBS. Varying concentrations of scFv-IC16 (10 to 5000 nM) and IC16 (10 to 1000 nM) were injected. […] When required, the surface was regenerated by injecting 20 µl 50 mM glycine, pH 11.0. The data evaluation was performed using Biaevaluation Software 4.1.1. ScFv-IC16 data were fitted according to the Langmuir 1∶1 binding model, whereas IC16 data were fitted according to the bivalent binding model. Standard errors of equilibrium dissociation constants (KD) were calculated using standard errors of the corresponding association and dissociation rate constants.

ELISA binding to Aβ monomers, C-terminal biotin tag (Aβ(1-42) monomers; 100% C-terminally biotinylated monomers, p = 0.038 versus N-bio oligomers): very similar to Aβ oligomers
ELISA binding to Aβ monomers, N-terminal biotin tag (Aβ(1-42) monomers; 100% N-terminally biotinylated monomers on streptavidin plate): not detected
interaction with Aβ(8-15) (Aβ(8-15)): No interaction
Substance: scFv-IC16: single-chain variable fragment (VH-(Gly4Ser)3-VL, His6- and Myc-tag) derived from Aβ binding monoclonal antibody IC16, expressed in E. coli
immunoprecipitation of monomeric Aβ ([1]; 7PA2 conditioned medium containing FCS, overnight 4°C): efficiently precipitated
immunoprecipitation of lower oligomeric Aβ species ([1]; conditioned medium of 7PA2 cells cultured without FCS): efficiently precipitated
